Earlier results in patent US5607673A, “Purified extract of uvaria brevistipitata and a process for obtaining the purified extract therefor” (C.S.S.A.H.A., Inc., priority 1995, dated 1997).

Tests used:
tumor = settings: Cole et al. 1976
[1] = test system: multi-drug resistant K 1 strain of plasmodium falciparum; settings: in vitro; Nkunya et al. 1991
[2] = U.S. Pat. No. 5,229,419
[3] = test system: NADH-Ubiquinone Reductase (Complex I); settings: Degli et al. 1994; for Complex I inhibitory constant and protein dependence of titer vs classical inhibitors: bovine submitochondrial particles
Colon-38 adenocarcinoma = settings: Lumonadio et al. 1991
[4] = test system: P-388 mouse lymphocytic leukemia cells; settings: Lumonadio et al. 1991
[5] = test system: P-388 lymphocytic leukemia; settings: in vitro; Jolad et al. 1982

In the case of `COc1cc(O)c(Cc2ccccc2O)c(O)c1C(=O)CCc1ccccc1` [Uvaratin], the anti-tumor activity (tumor) is given as “shown to have anti-tumor activity”.

For `COc1c(Cc2ccccc2O)c(O)c(Cc2ccccc2O)c(O)c1C(=O)CCc1ccccc1` [Diuveretin], the anti-malarial activity [1] is given as “most active”.

In the case of `CCCCCCCCCC[C@H](O)[C@H]1CC[C@H]([C@H]2CC[C@H]([C@H](O)CCCCCCCCCC[C@@H](O)CC3=C[C@H](C)OC3=O)O2)O1` [bullatacin], the “antitumor and pesticidal activity” value [2] is listed as “exhibit antitumor and pesticidal activity”.

For `CCCCCCCCCC[C@H](O)[C@H]1CC[C@@H]([C@@H]2CC[C@H]([C@H](O)CCCCCCCCCC[C@@H](O)CC3=C[C@H](C)OC3=O)O2)O1` [Rolliniastatin-1], the “Complex I inhibitory constant and protein dependence of titer vs classical inhibitors” value [3] is listed as “more powerful”.

For `CCCCCCCCCC[C@H](O)[C@H]1CC[C@H]([C@H]2CC[C@H]([C@H](O)CCCCCCCCCCC(O)CC3=C[C@H](C)OC3=O)O2)O1` (stereo partly shown) [Rolliniastatin-2], the “Complex I inhibitory constant and protein dependence of titer vs classical inhibitors” value [3] is listed as “more powerful”.

For `COc1cc(O)c(Cc2ccccc2O)c(O)c1C(=O)CCc1ccccc1` [Uvaretin], the anti-malarial activity [1] is listed as “most active”.

For 15-desacetylundulatone, the “activity against Colon-38 adenocarcinoma” value (Colon-38 adenocarcinoma) is listed as “active” and the “activity against P-388 cells” value [4] is listed as “active”.

In the case of `CC(C)=CC(O)C(O)C(C)=CCCC(C)=CCc1c[nH]c2ccccc12` (stereo not shown) [8',9'-dihydroxy-3-farnesylindole], the anti-malarial activity [1] is given as “most active”.

In the case of `CCCCCCCCCC[C@H](OC(C)=O)[C@H]1CC[C@H]([C@H]2CC[C@H]([C@H](O)CCCCCCCCCCCCC3=C[C@H](C)OC3=O)O2)O1` [Uvaricin], the “activity against P-388 lymphocytic leukemia” value [5] is given as “demonstrated an in vitro activity”.

In the case of Otivarin, the “Complex I inhibitory constant vs the classical inhibitor” value [3] is given as “lower than that of the classical inhibitor”.

For `CCCCCC[C@H](O)CCC[C@H](O)[C@H]1CC[C@H]([C@H]2CC[C@H]([C@H](O)CCCCCCCCCCCCC3=C[C@H](C)OC3=O)O2)O1` [Squamocin], the “Complex I inhibitory constant vs the classical inhibitor” value [3] is listed as “lower than that of the classical inhibitor”.

For `CCCCCCCCCC[C@H](O)[C@H]1CC[C@H]([C@H]2CC[C@H]([C@H](O)CCCCCCCCCC[C@@H]3CC(CC(C)=O)C(=O)O3)O2)O1` (stereo partly shown) [bullatacinone], the “antitumor and pesticidal activity” value [2] is given as “exhibit antitumor and pesticidal activity”.
